Assay [1] deals with C4. Put plainly: polyhydroxyl compounds in Buffer B mixed with EDTA-NHP: C4d fragment EIA. The following applies: final concentration 2M, 22° C. for 48 hr. In kind it is biochemical, human. As to the method: (§1) An extensive series of experiments were conducted to examine the ability of a large variety of polyhydroxyl compounds to prevent the spontaneous activation of C in EDTA-NHP during in vitro storage at 22° C for 48 hr. EDTA-NHP was mixed with an equal volume of Buffer B containing the polyhydroxyl compound to be tested. In these experiments Buffer B consisted of 40 mM EDTA and 30 IU sodium heparin/mL dissolved in deionized water, pH 7.2. The final concentration of polyhydroxyl compound dissolved in Buffer B varied for each compound due to differences in solubility. For each set of experiments, EDTA-NHP was also diluted and mixed with an equal volume of PBS (untreated control). The EDTA-NHP samples mixed with each polyhydroxyl compound dissolved in Buffer B and the corresponding untreated controls were incubated at 22° C. for 48 hr, stored at -70° C. and subsequently assayed for C4d, iC3b, C3d,g/iC3b and Bb complement fragment levels as well as for circulating immune complex levels using the Raji Cell Replacement EIA. […] This conclusion was based upon the iC3b percent protection values determined for each of the polyhydroxyl compounds (treated samples) as listed in FIG. 14.
(§2) The concentrations, expressed as μg analyte/mL, of a number of different activation products of spontaneous complement activation were measured in the course of these experiments. In an effort to normalize the data obtained from the various determinations so that the results from different assays could be directly compared to one another, a percent protection value was calculated for each analyte measured. The precent protection values were calculated by dividing the μg analyte/mL in the non-incubated, time-zero control sample by the μg analyte/mL in the experimental sample, multiplied by 100%. A percent protection value of 70 to 130% for any given analyte measured in an experimental sample was considered to indicate that the invention formulation tested was fully effective at providing protection against the occurrence of spontaneous complement activation. Ideally, the effective composition formulation would provide full protection against the occurrence of spontaneous complement activation in a complement-containing sample for all of the analytes measured. In fact, this was the case with several polyhydroxyl compounds when they were present in sufficiently high concentrations in a preferred embodiment of the invention.

Assay [2] deals with complement. Put plainly: protection against spontaneous complement activation in complement-containing samples during in vitro storage (summary of fragment EIAs). In kind it is biochemical, human. As to the method: A method for screening compounds to determine the complement preventing effectiveness thereof is described in detail in the course of the following experimental description and discussion. The method essentially comprises treating complement-containing samples with various doses of the test compounds, storing the thus-treated sample at conventional storage temperature for a minimum of about 48 hours and determining the extent of complement activation which occurs during the storage period by performing assays on the sample for various complement activation products. The results are compared with determination of the level of the same activation products at the beginning of the storage period, i.e., a non-incubated control sample. A non-treated control, comprising an identical sample diluted with phosphate buffered saline (PBS) in a volume ratio identical to that of the sample and polyhydroxyl solution is similarly assayed.
as §2
A percent protection value range of 70 to 130% was used as a criterion to define that a given invention embodiment was able to provide full protection against spontaneous complement activation for the following reasons: The coefficient of variation for the EIA kits employed in these studies ranged from 10-30% when analyte levels were measured in the very low range of values found in freshly-drawn normal human plasma samples. Therefore, in order to ensure that a given result fell within the variability range of the assays employed, a percent protection value between 70 and 130% was considered to represent a fully protective effect.

The target in assay [3] is T1, C3 (Homo sapiens, UniProt P01024).
T1 construct: 250 μL of freshly drawn EDTA-normal human plasma (EDTA-NHP); from tissue; host or cells: normal human blood plasma (EDTA plasma; in A12 also citrate and heparin plasma)
The assay is described as follows: polyhydroxyl compounds in Buffer B mixed with EDTA-NHP: iC3b and C3d,g/iC3b fragment EIA. To be noted: final concentration 2M, 22° C. for 48 hr. In kind it is biochemical. As to the method: as §1, §2
A plasma dilution of 1:50 and a serum dilution of 1:100 were used in the iC3b fragment EIA tests. The immunochemical reaction specificity of MoAb 013III-1.1.6.1 has been published previously in abstract form, W. P. Kolb, et al., Fed. Proc. 44:990 (1985).
A plasma dilution of 1:250 and a serum dilution of 1:500 were used in the C3d,g/iC3b EIA tests. […] 135:2015-2019 (1985); Y. Kanayama, et al., J. Immunol. Meth. 88:33-36 (1986). The immunochemical reaction specificity of the Cytotech MoAb 013III-31.4.3.2.2has been published previously in abstract form, W. P. Kolb, et al., FASEB Journal 2:A1834 (1988).

T1 sequence (P01024 672-1663 limits assumed): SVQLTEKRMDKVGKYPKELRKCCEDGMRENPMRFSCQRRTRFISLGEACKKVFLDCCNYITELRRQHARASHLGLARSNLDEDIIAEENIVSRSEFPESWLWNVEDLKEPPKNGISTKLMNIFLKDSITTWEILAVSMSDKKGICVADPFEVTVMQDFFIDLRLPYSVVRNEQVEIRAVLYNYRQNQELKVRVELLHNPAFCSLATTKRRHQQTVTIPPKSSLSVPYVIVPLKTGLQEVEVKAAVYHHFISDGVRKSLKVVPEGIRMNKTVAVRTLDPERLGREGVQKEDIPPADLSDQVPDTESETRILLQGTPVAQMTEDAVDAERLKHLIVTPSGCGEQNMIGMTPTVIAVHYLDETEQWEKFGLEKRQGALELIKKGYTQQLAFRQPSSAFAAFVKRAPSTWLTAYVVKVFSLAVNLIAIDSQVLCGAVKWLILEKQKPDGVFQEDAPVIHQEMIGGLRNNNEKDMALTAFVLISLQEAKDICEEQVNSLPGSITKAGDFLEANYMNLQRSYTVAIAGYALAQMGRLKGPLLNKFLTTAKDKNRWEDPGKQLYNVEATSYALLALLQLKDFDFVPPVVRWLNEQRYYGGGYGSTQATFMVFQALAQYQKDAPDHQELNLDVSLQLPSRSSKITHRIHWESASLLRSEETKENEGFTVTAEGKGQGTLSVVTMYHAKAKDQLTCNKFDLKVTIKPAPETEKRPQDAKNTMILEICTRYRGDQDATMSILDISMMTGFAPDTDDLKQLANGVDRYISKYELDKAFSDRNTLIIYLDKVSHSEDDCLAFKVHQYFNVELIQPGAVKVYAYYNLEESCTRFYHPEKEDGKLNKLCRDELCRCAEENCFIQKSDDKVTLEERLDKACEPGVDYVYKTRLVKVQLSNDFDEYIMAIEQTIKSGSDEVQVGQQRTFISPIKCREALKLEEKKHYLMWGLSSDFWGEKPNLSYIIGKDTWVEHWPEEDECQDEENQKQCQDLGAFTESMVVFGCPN
T1 sequence (P01024 23-667 limits assumed): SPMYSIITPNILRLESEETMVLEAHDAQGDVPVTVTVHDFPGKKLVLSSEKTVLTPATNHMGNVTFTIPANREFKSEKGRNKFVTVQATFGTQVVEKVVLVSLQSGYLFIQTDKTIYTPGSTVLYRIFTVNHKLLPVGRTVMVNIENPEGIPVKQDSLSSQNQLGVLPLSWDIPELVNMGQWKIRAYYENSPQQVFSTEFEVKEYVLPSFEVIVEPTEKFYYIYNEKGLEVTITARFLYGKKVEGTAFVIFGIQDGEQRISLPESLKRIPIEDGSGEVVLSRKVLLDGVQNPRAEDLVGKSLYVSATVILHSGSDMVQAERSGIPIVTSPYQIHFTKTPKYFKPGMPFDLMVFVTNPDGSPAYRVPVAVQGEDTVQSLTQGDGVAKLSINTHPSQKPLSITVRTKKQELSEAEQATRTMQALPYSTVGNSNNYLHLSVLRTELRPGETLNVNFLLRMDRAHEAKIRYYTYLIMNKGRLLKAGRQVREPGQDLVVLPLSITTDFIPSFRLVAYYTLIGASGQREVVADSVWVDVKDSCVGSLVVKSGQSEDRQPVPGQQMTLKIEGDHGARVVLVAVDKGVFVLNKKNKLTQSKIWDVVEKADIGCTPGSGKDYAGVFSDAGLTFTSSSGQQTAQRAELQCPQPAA

For the compound `OC[C@H]1O[C@@H](O)[C@H](O)[C@@H](O)[C@@H]1O` [β-D-glucose], the “prevention of spontaneous activation of C4 (C4d fragment production)” value in assay [1] is “completely prevented”. The “final concentration identified as particularly effective” value in assay [2] (added to a complement-containing sample) is reported as no less than 1.33 M. In addition, the “range of final concentrations found to provide protection against spontaneous complement activation” value in assay [2] (complement-containing samples during in vitro storage) was 0.5 to 4 M. In addition, in assay [2] (ingredient of the formulation), the “acceptable range of final concentration at which spontaneous C activation will be prevented” value is reported as no less than 1.3 M. Moreover, the “prevention of spontaneous activation of C3” value in assay [3] is reported as “completely prevented”.
